Results published in paper PMC10252016, “Mutation in the Common Docking Domain Affects MAP Kinase ERK2 Catalysis and Stability” (Cancers, 2023).
One block for each molecule: values may come before it.

Assays:
[1] = biological target: T1, extracellular-signal-regulated kinase 2 (ERK2) E322K (Homo sapiens, UniProt P28482, E322K); experiment: biochemical; parameters: Differential scanning fluorimetry, SYPRO Orange, 2 uM ERK2, melting temperature shift with 12 uM inhibitor; conditions: for ΔTm at 12 µM: read-out: ΔTm E322K
T1 construct: gene MAPK1; recombinant ERK2 E322K

D321G = biological target: T2, D321G (Homo sapiens, UniProt P28482, D321G); experiment: biochemical; parameters: Differential scanning fluorimetry, SYPRO Orange, 2 uM ERK2, melting temperature shift with 12 uM inhibitor; conditions: for ΔTm at 12 µM: read-out: ΔTm D321G
T2 construct: gene MAPK1; recombinant ERK2 D321G

[2] = biological target: T3, extracellular-signal-regulated kinase 2 (ERK2) (Homo sapiens, UniProt P28482); experiment: biochemical; parameters: Differential scanning fluorimetry, SYPRO Orange, 2 uM ERK2, melting temperature shift with 12 uM inhibitor; conditions: for ΔTm at 12 µM: read-out: ΔTm WT
T3 construct: gene MAPK1; recombinant ERK2 wild-type

D321A = biological target: T4, D321A (Homo sapiens, UniProt P28482, D321A); experiment: biochemical; parameters: Differential scanning fluorimetry, SYPRO Orange, 2 uM ERK2, melting temperature shift with 12 uM inhibitor; conditions: for ΔTm at 12 µM: read-out: ΔTm D321A
T4 construct: gene MAPK1; recombinant ERK2 D321A

D321V = biological target: T5, D321V (Homo sapiens, UniProt P28482, D321V); experiment: biochemical; parameters: Differential scanning fluorimetry, SYPRO Orange, 2 uM ERK2, melting temperature shift with 12 uM inhibitor; conditions: for ΔTm at 12 µM: read-out: ΔTm D321V
T5 construct: gene MAPK1; recombinant ERK2 D321V

D321E = biological target: T6, D321E (Homo sapiens, UniProt P28482, D321E); experiment: biochemical; parameters: Differential scanning fluorimetry, SYPRO Orange, 2 uM ERK2, melting temperature shift with 12 uM inhibitor; conditions: for ΔTm at 12 µM: read-out: ΔTm D321E
T6 construct: gene MAPK1; recombinant ERK2 D321E

D321N = biological target: T7, D321N (Homo sapiens, UniProt P28482, D321N); experiment: biochemical; parameters: Differential scanning fluorimetry, SYPRO Orange, 2 uM ERK2, melting temperature shift with 12 uM inhibitor; conditions: for ΔTm at 12 µM: read-out: ΔTm D321N
T7 construct: gene MAPK1; recombinant ERK2 D321N

[3] = biological target: T8, non-phosphorylated ERK2 wild-type (extracellular-signal-regulated kinase 2) (human, UniProt P28482 1-360); experiment: ITC; Affinity ITC (TA-Instruments), reversed mode: ERK2 protein (90-145 µM) in the cell, peptide (500 µM) in the syringe; 30 °C; 20 mM Hepes pH 7.5, 0.15 M NaCl, 0.5 mM TCEP; single binding site model; conditions: both partners purified
T8 construct: ERK2 (MAPK1), human, wild-type; Expressed from pNIC28-Bsa4; also called NP-ERK2 wild-type; NP-ERK2; source: E. coli Rosetta with phosphatase, purified (Ni-NTA, TEV cleavage, second Ni-NTA); not shown: His6, N-terminal, cleaved

[4] = biological target: T9, phosphorylated ERK2 wild-type (human, UniProt P28482 1-360, phosphorylated at Thr185 and Tyr187); experiment: as above; conditions: both partners purified
T9 construct: ERK2 (MAPK1), human, wild-type, phosphorylated on T185 and Y187 by co-expressed active MEK1; also called P-ERK2 wild-type; P-ERK2; not shown: His6, N-terminal, cleaved

ΔTm at 12 µM [1]: 9.2 °C
ΔTm at 12 µM (D321G): 13.1 °C
ΔTm at 12 µM [2]: 11.8 °C
ΔTm at 12 µM (D321A): 12.3 °C
ΔTm at 12 µM (D321V): 11.8 °C
ΔTm at 12 µM (D321E): 12.8 °C
ΔTm at 12 µM (D321N): 13.6 °C
Molecule: O=C1Nc2cc3[nH]nc(-c4ccncc4)c3cc2CN1Cc1ccccc1 [KO-947]

ΔTm E322K ([1]; 12 µM, binder): 6.80 °C
ΔTm D321G (D321G; 12 µM, binder): 11.80 °C
ΔTm WT ([2]; 12 µM, binder): 10.30 °C
ΔTm D321A (D321A; 12 µM, binder): 10.70 °C
ΔTm D321V (D321V; 12 µM, binder): 10.30 °C
ΔTm D321E (D321E; 12 µM, binder): 11.20 °C
ΔTm D321N (D321N; 12 µM, binder): 12.20 °C
Molecule: Cn1nccc1Nc1nccc(-c2ccn([C@H](CO)c3ccc(Cl)c(F)c3)c(=O)c2)n1 [GDC-0994]

ΔTm at 12 µM [1]: -1.3 °C
ΔTm at 12 µM (D321G): 4.6 °C
ΔTm at 12 µM [2]: 2.8 °C
ΔTm at 12 µM (D321A): 3.2 °C
ΔTm at 12 µM (D321V): 5 °C
ΔTm at 12 µM (D321E): 3.7 °C
ΔTm at 12 µM (D321N): 5.4 °C
Molecule: Nc1[nH]nc2nnc(-c3c(-c4ccccc4)nn4ccccc34)cc12 [FR 180204]

ΔTm at 12 µM [1]: 8.7 °C
ΔTm at 12 µM (D321G): 12.2 °C
ΔTm at 12 µM [2]: 11.6 °C
ΔTm at 12 µM (D321A): 11 °C
ΔTm at 12 µM (D321V): 11.6 °C
ΔTm at 12 µM (D321E): 11.7 °C
ΔTm at 12 µM (D321N): 12.7 °C
Molecule: O=C(Nc1ccc2[nH]nc(-c3ccncc3)c2c1)[C@@H]1CCN(CC(=O)N2CCN(c3ccc(-c4ncccn4)cc3)CC2)C1 [SCH772984]

ΔTm at 12 µM [1]: 10.2 °C
ΔTm at 12 µM (D321G): 13.9 °C
ΔTm at 12 µM [2]: 12.8 °C
ΔTm at 12 µM (D321A): 13.3 °C
ΔTm at 12 µM (D321V): 13 °C
ΔTm at 12 µM (D321E): 13.7 °C
ΔTm at 12 µM (D321N): 14.5 °C
Molecule: COC[C@H]1Cn2cc(-c3nc(Nc4ccnn4C)ncc3C)nc2C(=O)N1Cc1ccc(F)c(F)c1 [AZD0364]

ΔTm at 12 µM [1]: 4.6 °C
ΔTm at 12 µM (D321G): 9.1 °C
ΔTm at 12 µM [2]: 7.9 °C
ΔTm at 12 µM (D321A): 8.3 °C
ΔTm at 12 µM (D321V): 8.3 °C
ΔTm at 12 µM (D321E): 8.8 °C
ΔTm at 12 µM (D321N): 9.5 °C
Molecule: CC(C)Nc1cc(-c2c[nH]c(C(=O)N[C@H](CO)c3cccc(Cl)c3)c2)c(Cl)cn1 [Ulixertinib]

ΔTm at 12 µM [1]: 6.6 °C
ΔTm at 12 µM (D321G): 10.8 °C
ΔTm at 12 µM [2]: 9.4 °C
ΔTm at 12 µM (D321A): 9.8 °C
ΔTm at 12 µM (D321V): 10 °C
ΔTm at 12 µM (D321E): 10.3 °C
ΔTm at 12 µM (D321N): 11.2 °C
Molecule: Cn1nccc1Nc1nccc(-c2cc3c(s2)C(C)(C)N(CCN2CCOCC2)C3=O)n1 [LY3214996]

Kd [3]: 23.7 µM
B1: pepMEK2, docking peptide derived from the upstream activating kinase MEK2 (peptide)
peptide: MLARRKPVLPALTINP
notes: docking peptide from MEK2 (MAP2K2), N-terminal stretch; Solubilised in 5% DMSO and diluted in buffer; source: synthetic peptide, bought: GenScript

Kd [4]: 14.4 µM
B2: Kinase Interaction Motif (KIM) peptide of DUSP6 (peptide)
peptide: GIMLRRLQKGNLPVRAL
notes: Solubilised in 5% DMSO and diluted in buffer; also called KIM of DUSP6; KIM peptide DUSP6; source: synthetic peptide, bought: GenScript
